{"source": "patent US20180265915A1", "about": "“TRANSCRIPTION FACTOR DECOYS” (priority 2008, published 2018)", "key": {"E. coli [1]": {"test_system": "E. coli", "assay": "FabB decoy growth assay with cerulenin in 96-well plate", "format": "cell-based, Escherichia coli", "conditions": "Rich media supplemented with 1 μg/ml cerulenin", "protocol": "The decoy was prepared as described in Example 1.1 and used at various concentrations to transfect a well of a 96-well plate containing 200 μl of Rich media (10 g Tryptone, 5 g NaCl, 1 g Yeast extract per litre and supplemented with 0.2% glucose and 0.4% acetate, final concentrations) supplemented with 1 μg/ml cerulenin (Sigma). The plates were incubated at 37° C. with shaking and absorbance readings (at 595 nM) were taken using a plate reader. All data points were performed in triplicate."}, "E. coli [2]": {"test_system": "E. coli", "assay": "FabB TFD growth assay with cerulenin in LB, polymixin co-transfectant", "format": "cell-based, Escherichia coli", "protocol": "For example, a FabB decoy which targets the regulation of genes essential for fatty acid synthesis may be tested against suitable strain, e.g. E. coli grown in e.g. Luria-Bertani LB media (1% [w/v] Bacto-tryptone, 0.5% [w/v] Yeast extract, 1% [w/v] NaCl) in the presence of an antibiotic which acts on the process of fatty acid synthesis, e.g. Cerulenin.\nThe effect of TFDs on the growth of E. coli bacterial cultures was measured as described in Example 4.1 with a few modifications: the media used was LB; the co-transfectant used was 40 nM polymixin, rather than gramicidin; the media was also supplemented with 10 μg/ml Cerulenin (CER). CER is an antibiotic that acts on fatty acid synthesis."}, "S. aureus [3]": {"test_system": "S. aureus", "assay": "Growth of S. aureus transfected by electroporation under conditions of stress", "format": "cell-based, Staphylococcus aureus", "conditions": "BHI or LB media with 30 mM KOH, vs mock-electroporation or unrelated sequence", "protocol": "For example, stress response can be induced in a suitable strain e.g. S. aureus by growing in, e.g. LB media under conditions of stress, e.g. alkali conditions. For example LB media containing KOH, e.g. at 30 mM may be used. Untreated bacteria grow well in this media, due to the induction of the stress response by the alkali conditions, whereas those treated with the SA_sigB decoy, targeting the regulation of sigB which is a major part of the regulatory response to stress, grow poorly.\nDecoy polynucleotides were transfected into S. aureus by electroporation. Bacterial cells were prepared by standard methods. Briefy, cells were grown to early exponential phase in LB media at 37° C. as defined as reaching an Absorbance of 0.3 at […]. The cells were chilled to 4° C. and harvested by low speed centrifugation and washed three times in a similar volume of sterile, ice-cold 10% (v/v) glycerol. Finally the cells were resuspended in a tenth of their original volume in 10% glycerol. […] 200 μl of cells were aliquoted into wells of a 96 well plate that was incubated at 37° C. with moderate shaking, growth was monitored by measuring absorbance."}, "S. aureus [4]": {"test_system": "S. aureus", "assay": "Growth studies in 96-well plates (DOTAP/Gramicidin transfection)", "format": "cell-based, Staphylococcus aureus", "conditions": "10 nM TFD, DOTAP, 60 nM Gramicidin", "protocol": "Cholesterol/Cy5-labeled decoy polynucleotides were prepared as in section 5.1. Typically 1 Lg of TFD was then complexed with 0.3 μl of the liposomal transfection reagent DOTAP (Roche) and incubated at room temperature for 10 min. The assays to determine their effect on growth of bacterial cells were performed using 96 well plates, each well containing 200 μl of broth consisting of BHI media (from Becton Dickinson), which is not iron-limited, supplemented with 60 nM Gramicidin (from Sigma Corporation. Cat# G5002) or iron-depleted media (NRPMI) similarly supplemented with Gramicidin. The method for iron-depletion is described in full elsewhere (Science (2004) 305:1626-1628). 1 μl of various concentrations of a Cholesterol/Cy5-labeled decoy complexed with TFD were added to each well and their effect on bacterial growth of S. aureus monitored by measuring absorbance of the broth at intervals during incubation. The plates were incubated at 37° C. with shaking and absorbance readings (at 450 nM) were taken using a plate reader. Several decoys were tested: Sig, fhu and SsaA."}, "M. smegmatis": {"test_system": "M. smegmatis", "assay": "WhiB7 decoy antibiotic sensitisation, growth in shake flasks", "format": "cell-based, Mycobacterium smegmatis", "conditions": "100 nM TFD; sub-inhibitory isoniazid (IZ) or rifampicin (RF); 9H11 + 10% ODAC, 37° C.", "protocol": "A decoy polynucleotide containing the WhiB7 decoy sequence was prepared as described in Example 1.1 and various concentrations were used to transfect M. smegmatis grown in 20 ml of broth (in 200 ml shake flasks containing a wire baffle). The media used was 9H11 (Becton Dickinson) supplemented with 10% ODAC (Becton Dickinson) and sub-inhibitory concentrations of the antibiotics isoniazid (IZ) or rifampicin (RF). The flasks were incubated at 37° C. with shaking and at various intervals samples were withdrawn and their absorbance measured (to monitor cell growth). Flasks were either treated with 100 nM of the WhiB7 TFD (+) or treated with the negative control TFD (−)."}}, "note": "Entries after “also recorded” stand apart in the source; their conditions may differ.", "data": [{"substance": "FabB TFD: decoy containing the binding site for the FadR regulator, SEQ ID NO: 6 (DNA TTTATTCCGAACTGATCGGACTTGTTCAGCGTACACGTGTTAGCTATCCTGCGTGCTTCA; transcription factor decoy, method of preparation not given here for this one, further chemistry not given here)", "values": [{"measurement": "growth of E. coli in broth (absorbance at 595 nM)", "setting": "E. coli [1]", "value": "caused the cells to hardly grow at all"}, {"measurement": "sensitivity of E. coli to the action of cerulenin", "setting": "E. coli [2]; 10 nM TFD, LB, 40 nM polymixin, 10 μg/ml Cerulenin", "value": "sensitises the bacteria to antibiotics (cerulenin); also recorded: rendered the bacteria sensitive to the action of cerulenin"}, {"measurement": "effect on cells at 20 ug/ml cerulenin", "setting": "E. coli [2]; FabB TFD plus cerulenin", "value": "the cells are being killed by the synergenistic action"}, {"measurement": "growth of E. coli treated with the decoy versus untreated", "setting": "E. coli [2]; LB media, Cerulenin 10 μg/ml", "value": "grow markedly more slowly and to lower final density"}]}, {"substance": "SsaA TFD: contains the binding site for the two-component regulator WalR, SEQ ID NO: 8 (DNA ATTACAAATTTGTAACAGACTTATTTTA; transcription factor decoy, made by PCR or oligonucleotide ligation, further chemistry not given here; listed as Staphylococcus aureus)", "values": [{"measurement": "growth of S. aureus under conditions of stress", "setting": "S. aureus [3]", "value": "capable of slowing the growth"}, {"measurement": "effect on bacterial growth in BHI medium (non-iron limiting)", "setting": "S. aureus [4]", "value": "measurable delay in bacterial growth"}, {"measurement": "effect on bacterial growth in iron-limited media", "setting": "S. aureus [4]; NRPMI", "value": "no effect on bacterial growth"}]}, {"substance": "WhiB7 TFD: decoy with WhiB7 binding site, SEQ ID NO: 5, prepared by PCR with cholesterol/Cy5 primers (DNA TGGCCACGGATCCGGGTGACTGCGGGTCCGTGGCCT; PCR-made decoy including vector flanks, 5' cholesterol and Cy5 primer ends, further chemistry not given here)", "values": [{"measurement": "sensitivity of cells to the antibiotics tested (growth by absorbance)", "setting": "M. smegmatis", "value": "rendered sensitive to both the antibiotics tested"}]}]}
